In one test the test system is H. pylori TN 58. Put plainly: In vitro antimicrobial test (agar dilution method). In kind it is cell-based, Helicobacter pylori. The settings on record: Brucella agar with 7% horse blood.
In the next test the test system is H. pylori CPY 433. Put plainly: In vitro antimicrobial test (agar dilution method). It is filed as cell-based, Helicobacter pylori. The settings on record: Brucella agar with 7% horse blood. For orientation: In agar dilution, organisms are placed on agar that contains the substance at set levels.
Test [1] concerns Helicobacter pylori NCTC 11637. Put plainly: In vitro antimicrobial test (agar dilution method). In kind it is cell-based. The settings on record: Brucella agar with 7% horse blood, 37° C., 4 days.
The next test deals with H. pylori TN 2. Put plainly: In vitro antimicrobial test (agar dilution method). It is filed as cell-based, Helicobacter pylori. The settings on record: Brucella agar with 7% horse blood.
Test [2] has as its system Helicobacter pylori TN2GF4. Put plainly: In vivo antimicrobial activity test in infected mongolian gerbils. The settings on record: for Clearance Rate: mongolian gerbils infected with H. pylori TN2GF4; for Bacterial Detection: mean±standard deviation. The method, then:
After mongolian gerbils (MGS/Sea, male, 6 weeks of age) were fasted for 24 hours, Helicobacter pylori TN2GF4 was inoculated to the stomach at 10^7.08 per mongolian gerbil. Starting at 11 days after infection, a 3, 10, 30, or 100 mg/kg suspension of the test compound in a 0.5% aqueous solution of methyl cellulose was orally administered twice daily (morning and evening) for 3 days. On the day after final administration, the stomach of each infected mongolian gerbil was excised and disrupted; a series of 10-fold dilutions of the stomach homogenate were each inoculated to modified Skirrow's medium supplemented with activated charcoal and cultured under microaerophilic conditions at 37° C. for 4 days, after which clearance effect was assessed on the basis of the presence or absence of bacterial growth. Bacterial cell counts are expressed in mean±standard deviation after Dunnett's test against the control group.
In Table 4, ** indicates p<0.01.

In a further test the test system is H. pylori NCTC 11916. Put plainly: In vitro antimicrobial test (agar dilution method). The settings on record: Brucella agar with 7% horse blood. It is filed as cell-based, Helicobacter pylori. Here is the method: (§1) Using 5 strains of Helicobacter pylori, 19 other bacterial species and 2 yeast species as test strains, the antimicrobial activities of various compounds were determined by the method described below (agar dilution method). The test compound was dissolved in dimethyl sulfoxide; this solution was 2-fold diluted step by step with sterilized distilled water to yield test samples. Two milliliters of each test sample was mixed with 18 ml of Brucella agar supplemented with 7% horse blood as a medium to prepare a determination plate. Helicobacter pylori was subjected to shaking culture at 37° C. in a gas pack jar incorporating CampyPak™ (BBL^R Beckton Dickinson Microbiology Systems) for 20 hours, using Brucella broth medium supplemented with 2.5% fetal bovine serum, to yield a seed inoculum. The other test microorganisms were each cultured at 37° C. for 20 hours, using Brucella broth medium, to yield respective seed inocula.
Five microliters of each seed inoculum, previously adjusted to about 10^6 CFU/ml using Brucella broth medium supplemented with 2.5% fetal bovine serum was inoculated to each determination plate, and cultured at 37° C. in a gas pack jar incorporating CampyPak™ and water-soaked cotton absorbent for 4 days. […]

Test [3] has as its system Alcaligenes faecalis IFO 13111. Put plainly: In vitro antimicrobial test (agar dilution method). In kind it is cell-based. The settings on record: Brucella agar with 7% horse blood, 37° C., 4 days. Here is the method:
as §1
(§2) Five microliters of each seed inoculum, previously adjusted to about 10^6 CFU/ml using Brucella broth medium supplemented with 2.5% fetal bovine serum was inoculated to each determination plate, and cultured at 37° C. in a gas pack jar incorporating CampyPak™ and water-soaked cotton absorbent for 4 days. After cultivation, strain growth was macroscopically examined; the minimum concentration for the absence of strain growth was taken as the MIC value (minimum inhibitory concentration) of the test compound.

The subject of test [4] is Proteus vulgaris IFO 3045. Put plainly: In vitro antimicrobial test (agar dilution method). In kind it is cell-based. Conditions: Brucella agar with 7% horse blood, 37° C., 4 days. The method, then:
as §1, §2

In test [5] the test system is Escherichia coli NIHJ JC-2. Put plainly: In vitro antimicrobial test (agar dilution method). In kind it is cell-based. The settings on record: Brucella agar with 7% horse blood, 37° C., 4 days. The method, then:
as §1, §2

In test [6] the test system is Bacillus subtilis PCI 219. Put plainly: In vitro antimicrobial test (agar dilution method). Conditions: Brucella agar with 7% horse blood, 37° C., 4 days. In kind it is cell-based. The method, then: as §1, §2
Test [7] deals with Pseudomonas aeruginosa IFO 3080. Put plainly: In vitro antimicrobial test (agar dilution method). In kind it is cell-based. The settings on record: Brucella agar with 7% horse blood, 37° C., 4 days. Here is the method:
as §1, §2

In test [8] the test system is Citrobater freundii IFO 12681. Put plainly: In vitro antimicrobial test (agar dilution method). It is filed as cell-based. Conditions: Brucella agar with 7% horse blood, 37° C., 4 days. Here is the method: as §1, §2
In test [9] the test system is Bacillus megaterium IFO 12108. Put plainly: In vitro antimicrobial test (agar dilution method). It is filed as cell-based. The settings on record: Brucella agar with 7% horse blood, 37° C., 4 days. The method, then:
as §1, §2

The test system of a further test is Bacillus cereus IFO 3514. Put plainly: In vitro antimicrobial test (agar dilution method). Conditions: Brucella agar with 7% horse blood, 37° C., 4 days. In kind it is cell-based. Here is the method: as §1, §2
Test [10] deals with Salmonella enteritidis IFO 3313. Put plainly: In vitro antimicrobial test (agar dilution method). The settings on record: Brucella agar with 7% horse blood, 37° C., 4 days. It is filed as cell-based. Here is the method:
as §1, §2

Test [11] has as its system Candida albicans IFO 0583. Put plainly: In vitro antimicrobial test (agar dilution method). It is filed as cell-based. Conditions: Brucella agar with 7% horse blood, 37° C., 4 days. The method, then: as §1, §2
Test [12] deals with Serratia marcescens IFO 3046. Put plainly: In vitro antimicrobial test (agar dilution method). It is filed as cell-based. Conditions: Brucella agar with 7% horse blood, 37° C., 4 days. The method, then: as §1, §2
In test [13] the test system is Staphylococcus aureus FDA 209P. Put plainly: In vitro antimicrobial test (agar dilution method). It is filed as cell-based. Conditions: Brucella agar with 7% horse blood, 37° C., 4 days. Here is the method: as §1, §2
The test system of test [14] is Proteus morganii IFO 3168. Put plainly: In vitro antimicrobial test (agar dilution method). In kind it is cell-based. The settings on record: Brucella agar with 7% horse blood, 37° C., 4 days. The method, then:
as §1, §2

For test [15], the system named is Micrococcus luteus IFO 12708. Put plainly: In vitro antimicrobial test (agar dilution method). Conditions: Brucella agar with 7% horse blood, 37° C., 4 days. It is filed as cell-based. The method, then:
as §1, §2

For the next test, the system named is Escherichia coli K12. Put plainly: In vitro antimicrobial test (agar dilution method). It is filed as cell-based. Conditions: Brucella agar with 7% horse blood, 37° C., 4 days. Here is the method: as §1, §2
The test system of test [16] is Salmonella typhimurium IFO 12529. Put plainly: In vitro antimicrobial test (agar dilution method). Conditions: Brucella agar with 7% horse blood, 37° C., 4 days. It is filed as cell-based. The method, then:
as §1, §2

Test [17] concerns Proteus mirabilis ATCC 21100. Put plainly: In vitro antimicrobial test (agar dilution method). In kind it is cell-based. The settings on record: Brucella agar with 7% horse blood, 37° C., 4 days. The method, then: as §1, §2
Test [18] relates to Saccharomyces cerevisiae IFO 0209. Put plainly: In vitro antimicrobial test (agar dilution method). It is filed as cell-based. Conditions: Brucella agar with 7% horse blood, 37° C., 4 days. Here is the method:
as §1, §2

In test [19] the test system is Micrococcus flavus IFO 3242. Put plainly: In vitro antimicrobial test (agar dilution method). Conditions: Brucella agar with 7% horse blood, 37° C., 4 days. It is filed as cell-based. Here is the method:
as §1, §2

The test system of test [20] is Bacillus pumilus IFO 3813. Put plainly: In vitro antimicrobial test (agar dilution method). The settings on record: Brucella agar with 7% horse blood, 37° C., 4 days. It is filed as cell-based. Here is the method:
as §1, §2

Test [21] concerns Klebsiella pneumoniae IFO 3317. Put plainly: In vitro antimicrobial test (agar dilution method). Conditions: Brucella agar with 7% horse blood, 37° C., 4 days. In kind it is cell-based. Here is the method: as §1, §2
Setting [22] is: 3 mg/kg orally twice daily for 3 days.

Usually MIC stands for the lowest concentration that inhibits growth of the organism.

Structures are written as SMILES. ≈ marks a conversion by molar mass, not a printed value. Bounds are passed on as bounds.

In the case of `C[C@H](c1c[nH]c2ccccc12)[C@@H]1OC(N(C)C(=O)OCc2ccccc2)=NC1=O` [Example 2, (5S)-2-(N-Benzyloxycarbonyl-N-methyl)amino-5[(1R)-1-(indol-3-yl)ethyl]-2-oxazolin-4-one], the MIC in the test on H. pylori TN 58 stood at 0.05 µg/mL (≈ 0.128 µM); against H. pylori CPY 433, 0.05 µg/mL (≈ 0.128 µM); in test [1], 0.025 µg/mL (≈ 0.0639 µM); with H. pylori TN 2, 0.025 µg/mL (≈ 0.0639 µM).

Take `CN=C1NC(=O)[C@H]([C@H](C)c2c[nH]c3ccccc23)O1` [Indolmycin, indolmycin]: the MIC with H. pylori TN 58 was 0.025 µg/mL (≈ 0.0972 µM); with H. pylori CPY 433 it was 0.013 µg/mL (≈ 0.0505 µM); in test [1] it was 0.006 µg/mL (≈ 0.0233 µM); in the test on H. pylori NCTC 11916 it was 0.013 µg/mL (≈ 0.0505 µM); in the test with H. pylori TN 2 it was 0.006 µg/mL (≈ 0.0233 µM); in [3] it was more than 100 µg/mL. Besides, the MIC in test [4], in [5], in [6], in [7], in test [8] and in [9] was more than 100 µg/mL throughout. In addition, the MIC (in the test with Bacillus cereus IFO 3514; in test [10]; in [11]; in test [12]; in [13]; in [14]) was more than 100 µg/mL throughout. In addition, the MIC in test [15] is 12.5 µg/mL (≈ 48.6 µM); against Escherichia coli K12 it was more than 100 µg/mL; in [16], more than 100 µg/mL; in [17], more than 100 µg/mL; in test [18], more than 100 µg/mL; in test [19], more than 100 µg/mL. Also, the MIC in test [20] and in [21] was more than 100 µg/mL each time. For the same compound, the “Clearance Rate” value in test [2] (setting [22]) is on record as 0/5 (0) %; in test [2] (10 mg/kg orally twice daily for 3 days) it was 0/5 (0) %; in test [2] (30 mg/kg orally twice daily for 3 days), 1/4 (25) %; in test [2] (30 mg/kg orally twice daily for 3 days, listed as indolmycin), 25%; in test [2] (100 mg/kg orally twice daily for 3 days), 4/5 (80) %; in [2] (100 mg/kg orally twice daily for 3 days, listed as indolmycin), 80%. For the same compound, the “Bacterial Detection” value in test [2] (setting [22]) is reported as 4.61 ± 1.84 log CFU/gastric wall; in test [2] (10 mg/kg orally twice daily for 3 days, ** p<0.01 vs control), 2.76 ± 1.04** log CFU/gastric wall; in test [2] (30 mg/kg orally twice daily for 3 days, ** p<0.01 vs control), 1.96 ± 0.78** log CFU/gastric wall; in [2] (100 mg/kg orally twice daily for 3 days, ** p<0.01 vs control) it was 1.48 ± 0.00** log CFU/gastric wall. In test [2] (10 mg/kg or higher, mongolian gerbil), the “gastric bacterial cell count (in words)” value is recorded as “reduced the mongolian gerbil gastric bacterial cell count with dose dependency”.

The record behind these values is patent US6414003B1, “Oxazolone derivatives and their use as anti-helicobacter pylori agents” (Takeda Chemical Industries, Ltd., priority 1996, dated 2002).
